{"source": "patent US20150284349A1", "about": "(priority 2013, published 2015)", "key": {"[1]": {"experiment": "Oral pharmacokinetic study, bioavailability", "type": "in vivo", "settings": "rat, plasma, 5 mg/kg b.w., Male SD rats", "procedure": "Fasted animals (Male and Female BALB/c mice or SD rats, ten groups, three animals per group) were administered with compound 1 in vehicle (5% (v/v) N,N-Dimethylacetamide, 50% (v/v) of 60% (w/v) Sulfobutyl ether beta-cyclodextrin (SBEβCD) and 45% (v/v) Sterile water for injection) by oral route with a dose of 2.5, 5, and 10 mg/kg body weight at dose volume of 10 mL/kg b.w. Under mild isoflurane anesthesia, blood specimen were collected into pre-labeled tubes containing anticoagulant (K2EDTA—2 mg/mL blood) at various time points (0.08, 0.16, 0.25, 0.50, 1.00, 2.00, 4.00, 6.00, 8.00 and 24.00 hours). Collected blood specimens were centrifuged at 4000 rpm, 4° C. for 10 minutes and plasma was separated and stored at −80° C. until analysis."}, "[2]": {"experiment": "Human microsome stability", "type": "in vitro ADME"}, "[3]": {"tested_on": "multiple CYP", "experiment": "Standard CYP inhibition assays", "type": "in vitro ADME", "settings": "each assay", "procedure": "(§1) The Log D7.4 value of compound 1 was measured to be 2.69 under standard experimental conditions. Inhibition of multiple CYP was measured for compound 1 using standard CYP inhibition assays."}, "[4]": {"experiment": "Intravenous pharmacokinetic study, observation for adverse symptoms", "type": "in vivo, male and female BALB/c mice", "settings": "intravenous 1.0 mg/kg b.w., observed up to 24 hours post dose", "procedure": "Non-fasted animals (Male and Female BALB/c mice or SD rats, ten groups, three animals per group) were administered with compound 1 in vehicle (5% (v/v) N,N-Dimethylacetamide, 50% (v/v) of 60% (w/v) Hydroxypropyl beta-Cyclodextrin, 45% (v/v) Sterile water for injection) by intravenous route with various doses 0.5, 1, 2.5, and 5 mg/kg body weight at dose volume of 10 mL/kg body weight. Under mild isoflurane anesthesia, blood specimens were collected into pre-labeled tubes containing anticoagulant (K2EDTA—2 mg/mL blood) at various time points (0.08, 0.16, 0.25, 0.50, 1.00, 2.00, 4.00, 6.00, 8.00 and 24.00 hours). Collected blood specimens were centrifuged at 4000 rpm, 4° C. for 10 minutes and plasma was separated and stored at −80° C. until analysis."}, "[5]": {"tested_on": "786-O xenografts (renal cell carcinoma)", "experiment": "Mouse xenograft study, 786-O renal cell carcinoma", "type": "in vivo, mice", "procedure": "Mouse xenograft study was conducted to evaluate the primary endpoint of efficacy (reduction in tumor volume of >50% as compared to control) and the secondary endpoint of survival (Kaplan-Meier). Tumors were established in the flank region and grown to about 100 mm^3 The mice were treated with compound 1 in the 786-O xenografts (renal cell carcinoma) at 1 mg/kg given IV. The compound was injected every fourth day for 45 days (a total of 11 injections, see following table).\nAll tumors were imaged at the end of the study and harvested for histopathology studies. Percentages of tumor volumes in control and compound 1—treated mice measured throughout the entire duration of the experiments. Error bars are ±SEM of each experimental group.\nAfter the last treatment with compound 1, mice were injected with the tumor-targeting near-infrared (NIR) contrast agent IR-783, anesthetized and imaged on a Xenogen IVIS 200 small animal imager. The fluorescence output was processed with Living Image software with one representative sample for each group presented above."}, "[6]": {"experiment": "Plasma protein binding", "type": "in vitro ADME"}, "[7]": {"experiment": "Log D7.4 measurement", "type": "physicochemical", "settings": "pH 7.4; standard experimental conditions", "procedure": "as §1"}, "[8]": {"experiment": "Maximum tolerated dose study", "type": "in vivo, male BALB/c mice", "settings": "for MTD at 14 days: male, BALB/c, mouse, in vivo", "procedure": "Three groups of three animals (male BALB/c mice) were administered increasing doses of compound 1 every other day for 14 days and the animals checked daily for the signs of moribundity, mortality, vocalization, and gross weight or body shape abnormalities. Dose escalation of compound 1 was performed according to the “modified Fibonacci search” scheme, compound 1 (x=2 mg/kg) was dosed at 4, 6.6, 10, 14, 24 and 32 mg/kg on Days 0, 2, 4, 6, 8 and 10. […] An average MTD of 21.1 mg/kg for the three groups combined was determined from this study."}, "[9]": {"tested_on": "HIF1a", "settings": "cited from earlier work"}, "[10]": {"biological_target": "HIF/p300 complex (Homo sapiens, UniProt Q09472)", "sequence (Q09472 whole entry, one chain of several)": "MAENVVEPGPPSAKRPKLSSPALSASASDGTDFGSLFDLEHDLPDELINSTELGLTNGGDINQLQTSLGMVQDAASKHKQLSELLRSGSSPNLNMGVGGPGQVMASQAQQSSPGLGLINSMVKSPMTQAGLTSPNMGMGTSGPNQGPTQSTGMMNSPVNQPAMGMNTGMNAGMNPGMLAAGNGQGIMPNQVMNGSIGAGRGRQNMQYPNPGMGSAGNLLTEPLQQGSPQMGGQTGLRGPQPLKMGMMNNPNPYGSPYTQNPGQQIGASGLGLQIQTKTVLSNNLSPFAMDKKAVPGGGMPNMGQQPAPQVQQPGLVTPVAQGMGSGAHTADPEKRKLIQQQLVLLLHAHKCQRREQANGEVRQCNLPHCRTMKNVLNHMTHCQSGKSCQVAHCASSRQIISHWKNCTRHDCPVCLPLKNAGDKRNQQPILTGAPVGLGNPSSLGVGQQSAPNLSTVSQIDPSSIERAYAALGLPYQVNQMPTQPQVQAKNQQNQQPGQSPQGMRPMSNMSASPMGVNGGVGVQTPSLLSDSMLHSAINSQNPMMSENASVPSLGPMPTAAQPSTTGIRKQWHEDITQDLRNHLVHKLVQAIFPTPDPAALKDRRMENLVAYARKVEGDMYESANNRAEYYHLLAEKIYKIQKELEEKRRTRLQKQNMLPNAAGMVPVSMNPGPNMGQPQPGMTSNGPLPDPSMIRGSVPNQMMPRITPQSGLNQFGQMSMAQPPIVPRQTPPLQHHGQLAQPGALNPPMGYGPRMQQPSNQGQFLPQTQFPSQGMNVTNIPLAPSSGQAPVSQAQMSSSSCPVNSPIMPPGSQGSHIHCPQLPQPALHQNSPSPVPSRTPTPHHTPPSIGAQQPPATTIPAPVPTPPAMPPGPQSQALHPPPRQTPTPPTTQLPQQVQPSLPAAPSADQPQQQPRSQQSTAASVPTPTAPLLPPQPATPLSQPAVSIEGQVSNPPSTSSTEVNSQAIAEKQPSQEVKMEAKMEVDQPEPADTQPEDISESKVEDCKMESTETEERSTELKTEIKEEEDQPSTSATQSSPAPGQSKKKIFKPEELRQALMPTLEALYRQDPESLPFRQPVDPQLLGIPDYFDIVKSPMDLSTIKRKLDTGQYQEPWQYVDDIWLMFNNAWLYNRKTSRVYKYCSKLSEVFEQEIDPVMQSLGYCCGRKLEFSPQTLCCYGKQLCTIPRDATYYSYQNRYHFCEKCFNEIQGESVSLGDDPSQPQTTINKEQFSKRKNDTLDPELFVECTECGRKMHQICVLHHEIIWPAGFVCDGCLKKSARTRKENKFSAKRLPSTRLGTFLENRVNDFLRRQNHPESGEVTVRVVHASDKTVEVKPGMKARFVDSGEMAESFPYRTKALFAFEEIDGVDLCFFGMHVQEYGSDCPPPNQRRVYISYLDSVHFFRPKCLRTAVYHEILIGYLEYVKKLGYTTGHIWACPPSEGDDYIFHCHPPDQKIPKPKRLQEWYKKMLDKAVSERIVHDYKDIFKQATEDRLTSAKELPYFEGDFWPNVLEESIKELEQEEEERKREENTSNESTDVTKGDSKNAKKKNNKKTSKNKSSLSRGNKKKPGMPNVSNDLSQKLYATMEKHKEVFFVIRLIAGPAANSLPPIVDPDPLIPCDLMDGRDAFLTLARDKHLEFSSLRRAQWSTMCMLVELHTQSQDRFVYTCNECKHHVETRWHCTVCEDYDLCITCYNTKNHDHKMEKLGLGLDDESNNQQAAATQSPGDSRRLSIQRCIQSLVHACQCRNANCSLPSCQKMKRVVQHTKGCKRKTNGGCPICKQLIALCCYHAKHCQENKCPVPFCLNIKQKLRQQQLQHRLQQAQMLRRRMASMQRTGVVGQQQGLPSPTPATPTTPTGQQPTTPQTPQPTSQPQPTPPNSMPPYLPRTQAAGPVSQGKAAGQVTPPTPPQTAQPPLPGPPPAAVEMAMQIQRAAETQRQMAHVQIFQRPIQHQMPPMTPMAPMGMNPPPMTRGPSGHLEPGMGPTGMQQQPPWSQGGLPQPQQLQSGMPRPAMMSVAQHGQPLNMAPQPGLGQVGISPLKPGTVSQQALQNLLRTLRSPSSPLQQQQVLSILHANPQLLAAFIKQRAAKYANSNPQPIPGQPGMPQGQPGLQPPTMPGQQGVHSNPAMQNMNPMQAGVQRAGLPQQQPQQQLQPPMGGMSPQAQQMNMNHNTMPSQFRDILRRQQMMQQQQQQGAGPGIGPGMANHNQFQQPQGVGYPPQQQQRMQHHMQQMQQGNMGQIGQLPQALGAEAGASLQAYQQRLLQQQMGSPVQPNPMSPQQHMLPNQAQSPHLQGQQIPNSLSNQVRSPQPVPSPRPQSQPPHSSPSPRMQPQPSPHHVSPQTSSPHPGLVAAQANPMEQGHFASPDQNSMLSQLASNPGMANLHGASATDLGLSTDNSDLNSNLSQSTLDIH", "settings": "cited from earlier work"}}, "note": "Read-outs that look alike come from different tables or passages of the source."}
{"compound": "CN1C(=O)[C@]2(Cc3ccc(CCc4ccc(C[C@@]56SS[C@@](CO)(C(=O)N5C)N(C)C6=O)cc4)cc3)SS[C@@]1(CO)C(=O)N2C", "note": "(racemic) [Compound 1, (±)-4,4′-((ethane-1,2-diylbis(4,1-phenylene))bis(methylene))bis(1-(hydroxymethyl)-5,7-dimethyl-2,3-dithia-5,7-diazabicyclo[2.2.2]octane-6,8-dione)]", "values": [{"measurement": "bioavailability", "setting": "[1]", "value": 28, "unit": "%"}, {"measurement": "in vitro clearance, human microsome stability studies", "setting": "[2]", "value": "favorable in vitro clearance"}, {"measurement": "human microsome stability T1/2", "setting": "[2]; in the presence of co-factor", "value": "short"}, {"measurement": "IC50", "setting": "[3]", "value": "> 5", "unit": "µM"}, {"measurement": "adverse symptoms after dosing", "setting": "[4]", "value": "found to be normal"}, {"measurement": "median tumor volume increase", "setting": "[5]; 786-O xenografts in mice, 46 day experiment, control group 288%, P<0.01", "value": 113, "unit": "%"}, {"measurement": "intensity of the NIR signal from tumor-accumulated contrast agent IR-783 compared to control group", "setting": "[5]; after last treatment, Xenogen IVIS 200 imaging", "value": "significantly lower intensity"}, {"measurement": "weight loss", "setting": "[5]; during the 45 day experiment", "value": "5-8%"}, {"measurement": "plasma protein binding", "setting": "[6]", "value": "highly protein bound"}, {"measurement": "logD", "setting": "[7]", "value": 2.69}, {"measurement": "signs of toxicity", "setting": "[8]; 14 mg/kg dose, male BALB/c mice", "value": "no signs of toxicity"}, {"measurement": "signs of toxicity", "setting": "[8]; 24 mg/kg dose, male BALB/c mice", "value": "one animal exhibited signs of toxicity"}, {"measurement": "animals affected per group of three (quantity not given)", "setting": "[8]; Dose 4 mg/kg, Group 1", "value": 0}, {"measurement": "animals affected per group of three (quantity not given)", "setting": "[8]; Dose 4 mg/kg, Group 2", "value": 0}, {"measurement": "animals affected per group of three (quantity not given)", "setting": "[8]; Dose 4 mg/kg, Group 3", "value": 0}, {"measurement": "animals affected per group of three (quantity not given)", "setting": "[8]; Dose 6.6 mg/kg, Group 1", "value": 0}, {"measurement": "animals affected per group of three (quantity not given)", "setting": "[8]; Dose 6.6 mg/kg, Group 2", "value": 0}, {"measurement": "animals affected per group of three (quantity not given)", "setting": "[8]; Dose 6.6 mg/kg, Group 3", "value": 0}, {"measurement": "animals affected per group of three (quantity not given)", "setting": "[8]; Dose 10 mg/kg, Group 1", "value": 0}, {"measurement": "animals affected per group of three (quantity not given)", "setting": "[8]; Dose 10 mg/kg, Group 2", "value": 0}, {"measurement": "animals affected per group of three (quantity not given)", "setting": "[8]; Dose 10 mg/kg, Group 3", "value": 0}, {"measurement": "animals affected per group of three (quantity not given)", "setting": "[8]; Dose 14 mg/kg, Group 1", "value": 0}, {"measurement": "animals affected per group of three (quantity not given)", "setting": "[8]; Dose 14 mg/kg, Group 2", "value": 0}, {"measurement": "animals affected per group of three (quantity not given)", "setting": "[8]; Dose 14 mg/kg, Group 3", "value": 0}, {"measurement": "animals affected per group of three (quantity not given)", "setting": "[8]; Dose 24 mg/kg, Group 1", "value": 0}, {"measurement": "animals affected per group of three (quantity not given)", "setting": "[8]; Dose 24 mg/kg, Group 2", "value": 1}, {"measurement": "animals affected per group of three (quantity not given)", "setting": "[8]; Dose 24 mg/kg, Group 3", "value": 1}, {"measurement": "animals affected per group of three (quantity not given)", "setting": "[8]; Dose 32 mg/kg, Group 1", "value": 3}, {"measurement": "animals affected per group of three (quantity not given)", "setting": "[8]; Dose 32 mg/kg, Group 2", "value": 3}, {"measurement": "animals affected per group of three (quantity not given)", "setting": "[8]; Dose 32 mg/kg, Group 3", "value": 3}, {"measurement": "MTD at 14 days", "setting": "[8]; Group 1, read-out: MTD", "value": 25.3, "unit": "mg/kg"}, {"measurement": "MTD at 14 days", "setting": "[8]; Group 2, read-out: MTD", "value": 19, "unit": "mg/kg"}, {"measurement": "MTD at 14 days", "setting": "[8]; Group 3, read-out: MTD", "value": 19, "unit": "mg/kg"}, {"measurement": "MTD at 14 days", "setting": "[8]; three groups combined, male BALB/c mice, read-out: Average MTD", "value": 21.1, "unit": "mg/kg"}]}
{"compound": "COc1cc2c(cc1O)CC[C@@H]1[C@@H]2CC[C@]2(C)[C@@H](O)CC[C@@H]12", "note": "[2-methoxyestradiol]", "values": [{"measurement": "HIF1a levels in vitro", "setting": "[9]", "value": "reduce HIFIa levels"}]}
{"compound": "CN1C(=O)[C@]2(Cc3cn([C@]45C[C@@]67SS[C@@](CO)(C(=O)N6[C@H]4Nc4ccccc45)N(C)C7=O)c4ccccc34)SS[C@@]1(CO)C(=O)N2C", "note": "[chetomin]", "values": [{"measurement": "inhibition of the HIF/p300 complex", "setting": "[10]", "value": "potent and specific inhibition"}]}
